Laboratory results published in patent US20070031511A1, “Method of treatment” (priority 2003, published 2007).
Where no end group is shown, it is not given here. [ ]: non-standard residue; d: D form. pGlu = O=C1CC[C@@H](C(=O)O)N1

What was measured:
[1] = test system: IMGE-5 cells; experiment: IMGE-5 cell proliferation, [3H]-thymidine incorporation; assay type: cell-based, mice; conditions: for S (%), maximum % stimulation: IMGE cells, thymidine uptake, best fit at saturating concentration; for Effect of DFO on proliferation induced by the peptide: peptide 100 nM, plus or minus 1 μM DFO, [3H]-thymidine incorporation; for Inhibition of Ggly-stimulated IMGE-5 cell proliferation by iron chelator: [3H]-thymidine incorporation (FIG. 10)
Method: In some cases cell proliferation was also measured by [^3H]-thymidine incorporation as described previously (Oiry et al., 2000). Briefly, IMGE-5 cells (10^5/well) were seeded in 24-well plates in medium containing 10% FBS and 1 unit/ml γ-interferon. On the next day cells were serum starved and shifted to 39° C. for 24 hr. Cells were then incubated with or without various compounds at 39° C. for 17 h in medium supplemented with 0.2% bovine serum albumin only. Cells were incubated with 0.5 μCi of [^3H] thymidine in the same medium at 39° C. for 4 h, washed twice with PBS (2.7 mM KCl, 142 mM NaCl, 1.5 mM KH2PO4, 10 mM Na2HPO4, pH 6.95) containing 0.2% bovine serum albumin and incubated at 4° C. for 30 min with 5% trichloroacetic acid. Finally cells were washed with 95% ethanol to remove unincorporated [^3H] thymidine, and lysed with 1 M NaOH. Lysates were transferred to counting vials and neutralized with 1M HCl. The radioactivity of each lysate was counted in a β-counter after the addition of 10 ml of Pico-fluor 40 solution (Packard, Meriden, Conn.).
In some experiments IMGE-5 cells were seeded in a 96-well plate at a density of 3-5×10^3 cells/well in.DMEM containing 10% FBS, and cultured at 33° C.. On the following day, the cells were serum-starved at 33° C. for 24 h. […] The cells were cultured at 39° C. for 24 h, and then harvested using a NUNC cell harvester. The amount of ^3H-thymidine incorporated through DNA synthesis was detected with a β-counter (Packard, Meriden, Conn.). […]

[2] = Quenching of peptide tryptophan fluorescence by ferric ions (stoichiometry, apparent Kd); assay type: binding; conditions: 10 mM sodium acetate pH 4.0, 100 mM NaCl, 0.005% Tween 20; mean ± S.E.; read-out: Kd (μM), apparent dissociation constant for ferric ions
Method: The tryptophan fluorescence of peptide solutions was measured in 3 mL quartz cuvettes thermostated at […], with a Spex Fluorolog-2 spectrofluorimeter (Spex Industries, Edison, N.J.), with the excitation and emission wavelengths set at 290 and 345 nm, respectively. The quenching of tryptophan fluorescence induced by the binding of metal ions was used to calculate the fraction of binding sites occupied, fa: fa=(yf−y)/(yf−yb) where y is the fluorescence signal at a given concentration of metal ions and yb and yf are the signals when the binding sites are fully occupied and unoccupied, respectively (Winzor et al, 1995). The stoichiometry, p, and apparent dissociation constant, Kd, were then obtained, using the program Sigmastat (Jandel Scientific, San Rafael, Calif.), from the intercept and slope of a linear regression of the data transformed as described by Winzor and Sawyer (1995) in terms of the equation Cs/fa=pCa+Kd/(1−fa) where Cs is the total concentration of metal ions, and Ca is the total concentration of glycine-extended gastrin17. For the bismuth binding studies, the data was fitted by non-linear regression with the program Sigmaplot (Jandel Scientific, San Rafael, Calif.) to the equations for models with one binding site or two binding sites with identical affinities: fa=x/(Kd1+x) or to the model with two binding sites with different affinities: fa=(Kd1·x+Kd2·x+2x^2)/2(Kd1·Kd2+Kd1·x+Kd2·x+x^2) where x is the concentration of free metal ions, Kd1 is the first site dissociation constant and Kd2 is the second site dissociation constant. For the one-site model the value of x at any given total concentration of metal ions was obtained by exact solution of the appropriate quadratic (Malby et al, 2001). For the two-site models the value of x was obtained by an iterative Newton-Raphson procedure (Linse et al, 1991). Absorption Spectroscopy
The tryptophan fluorescence of progastrin6-80, glycine-extended gastrin17 and related peptides was measured in the presence of increasing concentrations of ferric ions in 10 mM sodium acetate, pH 4.0, 100 mM NaCl, 0.005% Tween 20. […] Values from the indicated number of independent experiments were combined to obtain the mean values (±S.E.) presented above. No binding of ferric ions to Ggly1-4 or Ggly12-18 was observed.
The tryptophan fluorescence of amidated gastrin17 and related peptides was measured in the presence of increasing concentrations of ferric ions at pH 4.0 (8). Values of the stoichiometry and the apparent dissociation constant (Kd) were obtained from linear transformations of the data presented in FIG. 20A by least squares fitting. Values from the indicated number of independent experiments were combined to obtain the mean values (±S.E.) presented above.

[3] = test system: IMGE-5 cells; experiment: IMGE-5 cell proliferation, MTT assay; assay type: cell-based, mice; conditions: MTT assay; peptides shown at 1 nM (FIGS. 7A, 8A)
Method: (§1) The IMGE-5 cell line was established from the gastric mucosa of mice transgenic for a temperature-sensitive mutant of the SV40 large T antigen (Hollande et al, 2001). IMGE-5 cells were generally grown at 33° C. in DMEM containing 1 unit/ml γ-interferon, 10% FBS, 100 U/ml penicillin, and 100 μg/ml streptomycin (permissive conditions). For all experiments, cells were transferred to 39° C. in the same medium without […] (non-permissive conditions), where they display differentiated characteristics such as expression of functional adherens and tight junctions. All experiments have been performed on cells between passages 20 and 35.
A colorimetric assay was used to measure cell proliferation. Briefly, IMGE-5 cells were seeded in a 96-well plate at a density of 10^4 cells/well in DMEM containing 10% FBS and antibiotics. The following day, cells were synchronized in Go by incubation for 24 h in the same medium lacking FBS. The medium was replaced the next day with fresh medium containing 1% FBS and antibiotics and the peptides under investigation, and incubation was continued for 72 h. 15 μl of 5 mg/ml 3-(4,5-dimethylthiazol-2-yl)-2-5-diphenyltetrazolium bromide (MTT, Sigma, St Louis Mo.) was added per well, and the plate was incubated at 37° C. for 4 h before the medium was discarded. 200 μl 40 mM HCl in isopropanol was added to lyse the cells, and the absorbance at 570 nm was read on a BioRad Model 550 Microplate reader (BioRad, Hercules, Calif.).

[4] = test system: IMGE-5 cells; experiment: Wound healing / cell migration assay; assay type: cell-based, mice; conditions: wound healing assay; fragments and mutants shown at 1 nM (FIGS. 7B, 8B)
Method: as §1
In order to assess the effects of different stimuli on cell migration, wound healing experiments were performed as detailed elsewhere (Hollande et al, 1997). In brief, IMGE-5 cells were grown in 12-well plates in DMEM at 33° C. until they reached 80% confluence, then shifted to 39° C. and starved of serum for 24 h. The confluent monolayer was wounded using a 20 μl-pipette tip, and cells were then washed 3 times with phosphate-buffered saline (PBS: 2.7 mM KCl, 1.5 MM KH2PO4, 142 mM NaCl, and 10 mM Na2HPO4, pH 6.95) and treated with or without different compounds in DMEM with antibiotics. Morphology and migration of cells were observed and photographed immediately, and after treatment for 17 and 24 h. Wound width was measured at six different positions on the 24 h photographs, and averages calculated.

EEEEEA [Peptide E5A]
S (%), maximum % stimulation [1]: 29.1% | Effect of DFO on proliferation induced by the peptide [1]: no significant reduction

LEEEEE [LE5]
S (%), maximum % stimulation [1]: 29.9% | Effect of DFO on proliferation induced by the peptide [1]: no significant reduction

EEEEE [Peptide E5]
S (%), maximum % stimulation [1]: 22.5% | Effect of DFO on proliferation induced by the peptide [1]: no significant reduction

COc1cccc2c1C(=O)c1c(O)c3c(c(O)c1C2=O)C[C@@](O)(C(=O)CO)C[C@@H]3O[C@H]1C[C@H](N)[C@H](O)[C@H](C)O1 [doxorubicin]
Inhibition of Ggly-stimulated IMGE-5 cell proliferation by iron chelator [1]: inhibited Ggly-stimulated IMGE-5 cell proliferation in a dose-dependent manner

Oc1c(I)cc(Cl)c2cccnc12 [clioquinol]
Inhibition of Ggly-stimulated IMGE-5 cell proliferation by iron chelator [1]: inhibited Ggly-stimulated IMGE-5 cell proliferation in a dose-dependent manner

GglyE6A: Ggly mutant, Glu6 replaced by Ala, SEQ ID NO:10 ([pGlu]GPWLAEEEEAYGWMDFG; ends and bridges not checked)
Kd [2]: 0.23 ± 0.02 µM | Stimulation of IMGE-5 cell proliferation [3]: to the same extent as Ggly | Stimulation of IMGE-5 cell migration [4]: to the same extent as Ggly

Ggly12-18: C-terminal heptapeptide of Ggly, SEQ ID NO:8 (YGWMDFG; listed as Homo sapiens)
Stimulation of IMGE-5 cell proliferation [3]: neither of these fragments stimulated proliferation | Stimulation of IMGE-5 cell migration [4]: Nor did they stimulate migration

Ggly1-4: fragment of Ggly, residues 1-4, SEQ ID NO:6 ([pGlu]GPW; listed as Homo sapiens)
Stimulation of IMGE-5 cell proliferation [3]: neither of these fragments stimulated proliferation | Stimulation of IMGE-5 cell migration [4]: Nor did they stimulate migration

EEEEEAY [Peptide E5AY]
S (%), maximum % stimulation [1]: 36.1% | Effect of DFO on proliferation induced by the peptide [1]: significantly blocked by DFO

LEEEEEA [LE5A]
S (%), maximum % stimulation [1]: 34.7% | Effect of DFO on proliferation induced by the peptide [1]: lower in the presence of DFO, although the reduction did not reach significance
